Experiments:
[1] = system: MDA-MB-231 triple negative breast cancer cell line; assay: Cytotoxicity in TTK-expressed MDA-MB-231 cells; format: cell-based; settings: Homo sapiens, MDA-MB-231, 120 h, 5 days
Protocol: To determine the cytotoxicity of a compound represented by Chemical Formula 1 according to the present invention to MDA-MB-231 cells, the following test was conducted.
MDA-MB-231 triple negative breast cancer cell line purchased from ATCC was inoculated into each well of a 96-well plate at a volume of 90 μL containing 2,000 cells. Thereafter, an example compound of the present invention was added to respective wells at concentrations of 10 μM, 3 μM, 1 μM, 0.3 μM, 0.1 μM, and 0 μM, and the cells were cultured in a cell incubator at 37° C. for 5 days. Five days later, 10 μL of Cyto X solution (manufacturer: LPS Solution) was added to each of the wells, and the absorbance was measured at 450 nm using an Epoch microplate spectrophotometer (manufacturer: BioTek Instruments Inc.) according to the product's user guide. For cytotoxicity, the IC50 value for cytotoxicity of each compound was calculated by quantifying the number of cells using the measured value.

[2] = system: HCT116 colon cancer cell line; assay: Cytotoxicity in TTK-expressed HCT116 cells; format: cell-based; settings: Homo sapiens, HCT-116, 120 h, 5 days
Protocol: To determine the cytotoxicity of a compound represented by Chemical Formula 1 according to the present invention to HCT116 cells, the following test was conducted.
HCT116 colon cancer cell line purchased from ATCC was inoculated into each well of a 96-well plate at a volume of 90 μL containing 2,000 cells. Thereafter, an example compound of the present invention was added to respective wells at concentrations of […], 3 μM, 1 μM, 0.3 μM, 0.1 μM, and 0 μM, and the cells were cultured in a cell incubator at 37° C. for 5 days. After 5 days, the number of cells was measured by CCK8 test method, and the cytotoxicity was determined by calculating the IC50 value for cytotoxicity of each compound.

[3] = molecular target: recombinant human TTK protein (Homo sapiens (Human), UniProt P33981); assay: Evaluation of TTK activity inhibitory ability (scintillation counting); format: biochemical; settings: TTK inhibitory activity; read-out: IC50;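 note: reaction stopped with 0.5% phosphoric acid, spotted on P30 filter, TTK activity counted by scintillation, uninhibited no-compound wells taken as 100% control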
Chain of recombinant human TTK protein (P33981 whole entry): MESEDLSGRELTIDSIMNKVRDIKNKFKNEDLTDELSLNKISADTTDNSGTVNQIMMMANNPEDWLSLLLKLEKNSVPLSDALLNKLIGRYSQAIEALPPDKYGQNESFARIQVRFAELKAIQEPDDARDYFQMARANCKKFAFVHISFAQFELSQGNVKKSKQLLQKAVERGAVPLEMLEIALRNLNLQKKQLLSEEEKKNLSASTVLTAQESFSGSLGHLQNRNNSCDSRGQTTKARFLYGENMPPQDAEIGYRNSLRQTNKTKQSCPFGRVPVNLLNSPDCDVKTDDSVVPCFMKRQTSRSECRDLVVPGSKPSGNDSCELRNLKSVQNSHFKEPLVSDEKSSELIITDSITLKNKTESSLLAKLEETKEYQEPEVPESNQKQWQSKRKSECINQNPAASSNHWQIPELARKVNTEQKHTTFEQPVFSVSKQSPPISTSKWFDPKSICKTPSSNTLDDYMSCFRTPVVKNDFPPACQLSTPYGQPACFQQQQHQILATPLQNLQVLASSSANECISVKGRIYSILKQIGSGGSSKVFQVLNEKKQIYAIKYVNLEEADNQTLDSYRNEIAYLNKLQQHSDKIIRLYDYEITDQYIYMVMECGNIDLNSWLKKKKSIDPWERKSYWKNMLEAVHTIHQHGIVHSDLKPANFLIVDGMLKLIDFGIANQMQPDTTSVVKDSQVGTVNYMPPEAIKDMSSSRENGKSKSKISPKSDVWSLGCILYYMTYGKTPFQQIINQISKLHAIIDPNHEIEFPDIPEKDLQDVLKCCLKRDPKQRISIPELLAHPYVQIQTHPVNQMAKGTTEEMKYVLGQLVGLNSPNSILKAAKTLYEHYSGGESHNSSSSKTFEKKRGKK
Protocol: To determine the ability of a compound represented by Chemical Formula 1 according to the present invention to inhibit TTK activity, the following experiment was conducted.
After that, the reaction was terminated by adding phosphoric acid to a concentration of 0.5%, and 10 of the reaction solution was dropped onto a P30 filter. […] The activity of TTK was measured through scintillation counting. The activity value from the group with no compound was set as 100% of control, and the degree of TTK inhibition by the compound was calculated.

| Structure (SMILES) | IC50 [3] | IC50 [1] | IC50 [2] |
| --- | --- | --- | --- |
| COc1cc(N2CCOCC2)ccc1Nc1nc(NC2CCCCC2)c2c(-c3ccc4[nH]cnc4c3)n[nH]c2n1 [Compound 8-16, 3-(1H-benzo[d]imidazol-5-yl)-N^4-cyclohexyl-N^6-(2-methoxy-4-morpholinophenyl)-1H-pyrazolo[3,4-d]pyrimidine-4,6-diamine] | 30 to 100 nM | 500 to 1000 nM | < 150 nM |
| COc1cc(N2CCOCC2)ccc1Nc1nc(NC2CCCCC2)c2c(-c3ccc4nc(C)oc4c3)n[nH]c2n1 [Compound 8-18, N^4-cyclohexyl-N^6-(2-methoxy-4-morpholinophenyl)-3-(2-methylbenzooxazol-6-yl)-1H-pyrazolo[3,4-d]pyrimidine-4,6-diamine] | 30 to 100 nM | 150 to 500 nM | < 150 nM |
| COc1cc(N2CCOCC2)ccc1Nc1nc(NC2CCCCC2)c2c(-c3cn(C)cn3)n[nH]c2n1 [Compound 8-19, N^4-cyclohexyl-N^6-(2-methoxy-4-morpholinophenyl)-3-(1-methyl-1H-imidazol-4-yl)-1H-pyrazolo[3,4-d]pyrimidine-4,6-diamine] | 30 to 100 nM | 150 to 500 nM | 500 to 1000 nM |
| COc1cc(N2CCOCC2)ccc1Nc1nc(NC2CCCCC2)c2c(-c3cnoc3)n[nH]c2n1 [Compound 8-20, N^4-cyclohexyl-3-(isoxazol-4-yl)-N^6-(2-methoxy-4-morpholinophenyl)-1H-pyrazolo[3,4-d]pyrimidine-4,6-diamine] | < 30 nM | < 150 nM | < 150 nM |
| COc1cc(N2CCOCC2)ccc1Nc1nc(NC2CCOCC2)c2c(-c3cnoc3)n[nH]c2n1 [Compound 8-21, 3-(Isoxazol-4-yl)-N^6-(2-methoxy-4-morpholinophenyl)-N^4-(tetrahydro-2H-pyran-4-yl)-1H-pyrazolo[3,4-d]pyrimidine-4,6-diamine] | 30 to 100 nM | 500 to 1000 nM | 500 to 1000 nM |
| COc1cc(N2CCOCC2)ccc1Nc1nc(NC2CCOCC2)c2c(-c3ncco3)n[nH]c2n1 [Compound 8-22, N^6-(2-methoxy-4-morpholinophenyl)-3-(oxazol-2-yl)-N^4-(tetrahydro-2H-pyran-4-yl)-1H-pyrazolo[3,4-d]pyrimidine-4,6-diamine] | < 30 nM | 500 to 1000 nM | < 150 nM |
| COc1cc(N2CCOCC2)ccc1Nc1nc(NC2CCOCC2)c2c(-c3cnn(C)c3)n[nH]c2n1 [Compound 8-23, N^6-(2-methoxy-4-morpholinophenyl)-3-(1-methyl-1H-pyrazol-4-yl)-N^4-(tetrahydro-2H-pyran-4-yl)-1H-pyrazolo[3,4-d]pyrimidine-4,6-diamine] | < 30 nM | 500 to 1000 nM | 150 to 500 nM |
| COc1cc(N2CCOCC2)ccc1Nc1nc(NC2CCOCC2)c2c(-c3cnn(C(F)F)c3)n[nH]c2n1 [Compound 8-24, 3-(1-(difluoromethyl)-1H-pyrazol-4-yl)-N^6-(2-methoxy-4-morpholinophenyl)-N^4-(tetrahydro-2H-pyran-4-yl)-1H-pyrazolo[3,4-d]pyrimidine-4,6-diamine] | < 30 nM | 150 to 500 nM | 150 to 500 nM |
| COc1cc(N2CCOCC2)ccc1Nc1nc(NC2CCOCC2)c2c(-c3ccn(C)n3)n[nH]c2n1 [Compound 8-25, N^6-(2-methoxy-4-morpholinophenyl)-3-(1-methyl-1H-pyrazol-3-yl)-N^4-(tetrahydro-2H-pyran-4-yl)-1H-pyrazolo[3,4-d]pyrimidine-4,6-diamine] | < 30 nM | 150 to 500 nM | 150 to 500 nM |
| COc1cc(N2CCOCC2)ccc1Nc1nc(NC2CCOCC2)c2c(-c3cccnc3)n[nH]c2n1 [Compound 8-27, N^6-(2-methoxy-4-morpholinophenyl)-3-(pyridin-3-yl)-N^4-(tetrahydro-2H-pyran-4-yl)-1H-pyrazolo[3,4-d]pyrimidine-4,6-diamine] | < 30 nM | 500 to 1000 nM | 500 to 1000 nM |
| COc1cc(N2CCOCC2)ccc1Nc1nc(NC2CCOCC2)c2c(-c3ccncc3)n[nH]c2n1 [Compound 8-28, N^6-(2-methoxy-4-morpholinophenyl)-3-(pyridin-4-yl)-N^4-(tetrahydro-2H-pyran-4-yl)-1H-pyrazolo[3,4-d]pyrimidine-4,6-diamine] | < 30 nM | 150 to 500 nM | 150 to 500 nM |
| COc1cc(N2CCOCC2)ccc1Nc1nc(NCC2CCCO2)c2c(-c3cnn(C)c3)n[nH]c2n1 (stereo not drawn) [Compound 8-34, N^6-(2-methoxy-4-morpholinophenyl)-3-(1-methyl-1H-pyrazol-4-yl)-N^4-((tetrahydrofuran-2-yl)methyl)-1H-pyrazolo[3,4-d]pyrimidine-4,6-diamine] | < 30 nM | > 1000 nM | > 1000 nM |
| COc1cc(N2CCOCC2)ccc1Nc1nc(NCC2CCCO2)c2c(-c3cnoc3)n[nH]c2n1 (stereo not drawn) [Compound 8-35, 3-(Isoxazol-4-yl)-N^6-(2-methoxy-4-morpholinophenyl)-N^4-((tetrahydrofuran-2-yl)methyl)-1H-pyrazolo[3,4-d]pyrimidine-4,6-diamine] | < 30 nM | > 1000 nM | > 1000 nM |

Further lines, with some results ahead:

| IC50 [3] | Structure (SMILES) | IC50 [1] | IC50 [2] |
| --- | --- | --- | --- |
| < 30 nM | COc1cc(-c2nncn2C)ccc1Nc1nc(NC2CCCCC2)c2c(-c3cnn(C)c3)n[nH]c2n1 [Compound 11-2, N^4-cyclohexyl-N^6-(2-methoxy-4-(4-methyl-4H-1,2,4-triazol-3-yl)phenyl)-3-(1-methyl-1H-pyrazol-4-yl)-1H-pyrazolo[3,4-d]pyrimidine-4,6-diamine] | < 150 nM | < 150 nM |
| < 30 nM | CNC(=O)c1ccc(Nc2nc(NC3CCCCC3)c3c(-c4cnn(C)c4)n[nH]c3n2)c(OC)c1 [Compound 11-3, 4-((4-(cyclohexylamino)-3-(1-methyl-1H-pyrazol-4-yl)-1H-pyrazolo[3,4-d]pyrimidin-6-yl)amino)-3-methoxy-N-methylbenzamide] | < 150 nM | 150 to 500 nM |
| < 30 nM | COc1cc(C(=O)N2CCOCC2)ccc1Nc1nc(NC2CCCCC2)c2c(-c3cnn(C)c3)n[nH]c2n1 [Compound 11-4, (4-((4-(cyclohexylamino)-3-(1-methyl-1H-pyrazol-4-yl)-1H-pyrazolo[3,4-d]pyrimidin-6-yl)amino)-3-methoxyphenyl)(morpholino)methanone] | 150 to 500 nM | 150 to 500 nM |
| 30 to 100 nM | COc1cc(C(=O)N2CCN(C)CC2)ccc1Nc1nc(NC2CCCCC2)c2c(-c3cnn(C)c3)n[nH]c2n1 [Compound 11-5, (4-((4-(cyclohexylamino)-3-(1-methyl-1H-pyrazol-4-yl)-1H-pyrazolo[3,4-d]pyrimidin-6-yl)amino)-3-methoxyphenyl)(4-methylpiperazin-1-yl)methanone] | 500 to 1000 nM | 150 to 500 nM |
| 30 to 100 nM | COc1cc(N2CCOCC2)ccc1Nc1nc(NC2CCCCC2)c2c(-c3nncn3C)n[nH]c2n1 [Compound 14-1, N^4-cyclohexyl-N^6-(2-methoxy-4-morpholinophenyl)-3-(4-methyl-4H-1,2,4-triazol-3-yl)-1H-pyrazolo[3,4-d]pyrimidine-4,6-diamine] | < 150 nM | 150 to 500 nM |
| 30 to 100 nM | COc1cc(N2CCOCC2)ccc1Nc1nc(NC2CCCCC2)c2c(-c3nnco3)n[nH]c2n1 [Compound 14-2, N^4-cyclohexyl-N^6-(2-methoxy-4-morpholinophenyl)-3-(1,3,4-oxadiazol-2-yl)-1H-pyrazolo[3,4-d]pyrimidine-4,6-diamine] | 150 to 500 nM | 150 to 500 nM |

— patent publication US20250145625A1, “PYRAZOLOPYRIMIDINE DERIVATIVE AND ANTICANCER PHARMACEUTICAL COMPOSITION CONTAINING SAME AS ACTIVE INGREDIENT” (KOREA RESEARCH INSTITUTE OF CHEMICAL TECHNOLOGY, priority 2021, published 2025)
